Data on one compound can be found in patent publication US9492471B2, “Methods of treating a disease or disorder associated with Bruton'S Tyrosine Kinase” (Celgene Avilomics Research, Inc., priority 2013, dated 2016).

What all share (assay): HotSpot kinase profiling
Holding throughout (assay type): biochemical

For one assay, the target named is T1, MAPKAPK3 (Homo sapiens, UniProt Q16644).
T1 construct: purchased Reaction Biology Corp
The method, boiled down:
(§1)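 Radiometric kinase assay with P81 filter capture; each kinase was added to fresh substrate plus cofactors in reaction buffer and incubated 2 h at room temperature. Unreacted phosphate was washed off with 0.1% phosphoric acid before detection; percent inhibition is relative to DMSO control, averaged over replicates.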

The next assay concerns the target T2, KHS/MAP4K5 (Homo sapiens, UniProt Q9Y4K4).
T2 construct: purchased Reaction Biology Corp
The method, boiled down: as §1

In another assay the target is T3, MLCK/MYLK (Homo sapiens, UniProt Q15746).
T3 construct: purchased Reaction Biology Corp
The method, boiled down:
as §1

The target of another assay is T4, ALK (Homo sapiens, UniProt Q9UM73).
T4 construct: purchased Reaction Biology Corp
T4 sequence (Q9UM73 19-1620): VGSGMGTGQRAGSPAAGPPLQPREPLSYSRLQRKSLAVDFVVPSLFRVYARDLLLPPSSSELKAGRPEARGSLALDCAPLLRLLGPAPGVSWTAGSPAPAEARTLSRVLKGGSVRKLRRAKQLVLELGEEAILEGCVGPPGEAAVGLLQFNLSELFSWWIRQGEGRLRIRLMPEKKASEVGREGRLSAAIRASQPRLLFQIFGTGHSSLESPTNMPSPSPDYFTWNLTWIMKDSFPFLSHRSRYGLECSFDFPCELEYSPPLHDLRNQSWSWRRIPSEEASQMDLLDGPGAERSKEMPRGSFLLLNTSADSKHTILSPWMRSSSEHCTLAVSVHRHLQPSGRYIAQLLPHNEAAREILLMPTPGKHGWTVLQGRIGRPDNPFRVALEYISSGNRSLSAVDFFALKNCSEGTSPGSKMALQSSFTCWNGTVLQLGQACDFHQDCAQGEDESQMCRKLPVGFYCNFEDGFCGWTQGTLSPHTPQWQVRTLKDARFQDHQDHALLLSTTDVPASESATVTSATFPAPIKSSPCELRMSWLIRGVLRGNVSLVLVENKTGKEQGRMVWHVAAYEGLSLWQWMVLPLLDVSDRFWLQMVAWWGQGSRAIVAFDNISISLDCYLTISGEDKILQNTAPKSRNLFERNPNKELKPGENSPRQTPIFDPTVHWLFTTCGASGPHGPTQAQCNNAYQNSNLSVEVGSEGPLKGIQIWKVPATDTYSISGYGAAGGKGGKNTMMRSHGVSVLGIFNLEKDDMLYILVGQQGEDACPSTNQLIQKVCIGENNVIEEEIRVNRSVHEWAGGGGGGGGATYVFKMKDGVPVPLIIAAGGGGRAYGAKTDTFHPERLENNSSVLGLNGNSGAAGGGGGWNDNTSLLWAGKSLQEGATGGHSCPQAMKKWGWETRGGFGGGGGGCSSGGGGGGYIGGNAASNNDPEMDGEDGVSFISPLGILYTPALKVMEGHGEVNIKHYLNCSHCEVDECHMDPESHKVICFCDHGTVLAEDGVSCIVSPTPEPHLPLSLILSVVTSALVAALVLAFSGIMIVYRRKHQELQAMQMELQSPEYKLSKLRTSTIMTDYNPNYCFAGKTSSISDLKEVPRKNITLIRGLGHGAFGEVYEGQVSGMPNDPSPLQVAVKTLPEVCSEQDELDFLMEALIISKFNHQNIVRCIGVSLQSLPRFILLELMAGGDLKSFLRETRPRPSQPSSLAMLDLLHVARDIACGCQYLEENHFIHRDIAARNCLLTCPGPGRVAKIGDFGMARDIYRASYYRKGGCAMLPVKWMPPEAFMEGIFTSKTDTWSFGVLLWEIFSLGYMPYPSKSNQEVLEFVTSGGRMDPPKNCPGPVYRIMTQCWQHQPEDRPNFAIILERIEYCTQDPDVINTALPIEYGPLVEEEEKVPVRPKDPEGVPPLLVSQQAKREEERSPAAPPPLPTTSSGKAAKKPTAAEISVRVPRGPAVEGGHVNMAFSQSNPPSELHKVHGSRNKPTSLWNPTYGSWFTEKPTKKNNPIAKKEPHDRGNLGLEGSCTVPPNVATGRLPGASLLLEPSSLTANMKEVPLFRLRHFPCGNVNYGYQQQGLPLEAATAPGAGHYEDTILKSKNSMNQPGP
In a few lines:
as §1

Another assay concerns the target T5, SGK3/SGKL (Homo sapiens, UniProt Q96BR1).
T5 construct: purchased Reaction Biology Corp
T5 sequence (Q96BR1 1-496): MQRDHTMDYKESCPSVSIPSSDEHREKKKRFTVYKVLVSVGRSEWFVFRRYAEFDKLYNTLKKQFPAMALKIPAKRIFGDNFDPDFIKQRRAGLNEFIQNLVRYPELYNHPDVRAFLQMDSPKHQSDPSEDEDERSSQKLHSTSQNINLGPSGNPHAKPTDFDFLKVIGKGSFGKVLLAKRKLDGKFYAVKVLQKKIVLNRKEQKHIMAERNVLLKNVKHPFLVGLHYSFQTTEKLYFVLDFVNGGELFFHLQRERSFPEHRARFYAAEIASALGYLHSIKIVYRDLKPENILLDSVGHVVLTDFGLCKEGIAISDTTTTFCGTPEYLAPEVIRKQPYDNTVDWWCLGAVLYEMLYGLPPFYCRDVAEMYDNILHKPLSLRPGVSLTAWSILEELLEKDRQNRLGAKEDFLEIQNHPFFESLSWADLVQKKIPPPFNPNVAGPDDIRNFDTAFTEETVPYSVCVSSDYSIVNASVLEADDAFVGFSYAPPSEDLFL
The method, boiled down:
as §1

A further assay concerns the target T6, BRSK1 (Homo sapiens, UniProt Q8TDC3).
T6 construct: purchased Reaction Biology Corp
T6 sequence (Q8TDC3 1-778): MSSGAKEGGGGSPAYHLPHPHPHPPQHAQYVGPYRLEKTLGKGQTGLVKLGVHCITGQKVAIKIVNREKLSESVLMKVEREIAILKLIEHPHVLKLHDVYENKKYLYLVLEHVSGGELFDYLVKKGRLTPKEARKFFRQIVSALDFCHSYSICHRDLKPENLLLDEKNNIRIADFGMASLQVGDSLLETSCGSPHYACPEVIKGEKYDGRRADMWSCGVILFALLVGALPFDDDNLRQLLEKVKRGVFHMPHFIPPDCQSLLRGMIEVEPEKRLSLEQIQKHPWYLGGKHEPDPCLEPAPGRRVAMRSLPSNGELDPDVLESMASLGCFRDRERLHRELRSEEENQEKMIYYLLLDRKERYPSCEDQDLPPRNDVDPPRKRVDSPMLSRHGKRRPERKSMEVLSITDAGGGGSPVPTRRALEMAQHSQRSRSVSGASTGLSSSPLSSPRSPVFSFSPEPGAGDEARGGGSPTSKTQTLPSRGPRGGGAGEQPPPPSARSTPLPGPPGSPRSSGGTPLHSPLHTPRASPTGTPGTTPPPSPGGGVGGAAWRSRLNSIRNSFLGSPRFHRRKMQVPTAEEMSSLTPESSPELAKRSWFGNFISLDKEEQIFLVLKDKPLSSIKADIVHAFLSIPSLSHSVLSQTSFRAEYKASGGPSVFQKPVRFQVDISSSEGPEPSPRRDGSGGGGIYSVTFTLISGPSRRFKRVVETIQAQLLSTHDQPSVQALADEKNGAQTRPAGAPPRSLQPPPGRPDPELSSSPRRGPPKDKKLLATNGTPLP
In a few lines: as §1

In a further assay the target is T7, PHKg1 (Homo sapiens, UniProt Q16816).
T7 construct: purchased Reaction Biology Corp
T7 sequence (Q16816 whole entry): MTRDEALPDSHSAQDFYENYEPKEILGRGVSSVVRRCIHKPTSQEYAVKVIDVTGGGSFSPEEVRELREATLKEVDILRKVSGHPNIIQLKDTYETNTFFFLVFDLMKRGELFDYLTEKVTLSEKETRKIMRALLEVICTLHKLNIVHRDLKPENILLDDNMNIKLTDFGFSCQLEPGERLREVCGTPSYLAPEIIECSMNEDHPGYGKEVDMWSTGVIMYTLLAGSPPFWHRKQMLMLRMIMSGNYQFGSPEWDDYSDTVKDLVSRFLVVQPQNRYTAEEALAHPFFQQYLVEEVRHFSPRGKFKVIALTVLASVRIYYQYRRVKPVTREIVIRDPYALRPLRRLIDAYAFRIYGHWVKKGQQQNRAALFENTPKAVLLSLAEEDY
The method, boiled down:
as §1

A further assay addresses T8, RSK4 (Homo sapiens, UniProt Q9UK32).
T8 construct: purchased Reaction Biology Corp
The method, boiled down:
as §1

[1] abbreviates: read-out: % Enzyme Activity (relative to DMSO controls) Run 1.
[2] abbreviates: read-out: % Enzyme Activity (relative to DMSO controls) Run 2.

Read-outs that look alike come from different tables or passages of the source.

T8 sequence (Q9UK32 whole entry): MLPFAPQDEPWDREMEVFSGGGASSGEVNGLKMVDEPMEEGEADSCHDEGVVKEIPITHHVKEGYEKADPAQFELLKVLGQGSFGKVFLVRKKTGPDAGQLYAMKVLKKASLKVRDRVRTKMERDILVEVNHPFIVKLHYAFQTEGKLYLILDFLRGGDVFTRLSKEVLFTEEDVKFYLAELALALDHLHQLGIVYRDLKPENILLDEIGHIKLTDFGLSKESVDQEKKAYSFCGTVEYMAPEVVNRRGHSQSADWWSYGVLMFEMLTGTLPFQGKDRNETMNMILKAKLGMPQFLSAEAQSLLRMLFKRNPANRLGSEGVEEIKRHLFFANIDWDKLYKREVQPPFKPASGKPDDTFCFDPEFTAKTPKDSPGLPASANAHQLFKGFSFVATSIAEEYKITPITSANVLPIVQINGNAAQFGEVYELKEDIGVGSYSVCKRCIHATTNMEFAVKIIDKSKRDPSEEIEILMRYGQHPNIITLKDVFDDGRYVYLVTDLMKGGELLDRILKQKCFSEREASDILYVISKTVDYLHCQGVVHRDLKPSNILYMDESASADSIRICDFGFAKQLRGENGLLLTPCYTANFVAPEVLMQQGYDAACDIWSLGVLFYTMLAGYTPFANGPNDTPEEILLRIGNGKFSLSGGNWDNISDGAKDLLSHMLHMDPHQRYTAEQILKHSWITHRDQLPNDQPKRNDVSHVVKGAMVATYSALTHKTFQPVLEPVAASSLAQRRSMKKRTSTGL
T2 sequence (Q9Y4K4 whole entry): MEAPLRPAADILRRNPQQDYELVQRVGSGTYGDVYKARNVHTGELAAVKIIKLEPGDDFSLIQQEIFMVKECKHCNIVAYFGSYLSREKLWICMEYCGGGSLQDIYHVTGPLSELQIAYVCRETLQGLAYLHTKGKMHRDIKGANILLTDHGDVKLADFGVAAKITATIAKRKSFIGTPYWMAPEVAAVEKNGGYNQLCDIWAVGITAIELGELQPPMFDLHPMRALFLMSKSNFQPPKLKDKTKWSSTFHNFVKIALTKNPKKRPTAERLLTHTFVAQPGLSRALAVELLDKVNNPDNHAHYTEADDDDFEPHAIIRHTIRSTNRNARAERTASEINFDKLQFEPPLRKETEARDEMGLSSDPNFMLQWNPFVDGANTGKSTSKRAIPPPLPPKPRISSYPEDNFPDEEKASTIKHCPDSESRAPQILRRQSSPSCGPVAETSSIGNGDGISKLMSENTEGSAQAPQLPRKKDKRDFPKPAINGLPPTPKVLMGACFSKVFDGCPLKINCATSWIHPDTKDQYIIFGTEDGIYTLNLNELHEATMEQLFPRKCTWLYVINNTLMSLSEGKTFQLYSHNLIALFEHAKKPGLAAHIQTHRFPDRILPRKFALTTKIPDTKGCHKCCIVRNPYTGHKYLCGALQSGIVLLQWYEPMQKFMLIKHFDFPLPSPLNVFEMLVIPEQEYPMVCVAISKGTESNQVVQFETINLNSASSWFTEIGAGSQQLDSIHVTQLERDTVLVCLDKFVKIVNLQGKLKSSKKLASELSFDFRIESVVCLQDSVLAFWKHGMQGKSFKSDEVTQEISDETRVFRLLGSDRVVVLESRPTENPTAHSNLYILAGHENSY
T1 sequence (Q16644 whole entry): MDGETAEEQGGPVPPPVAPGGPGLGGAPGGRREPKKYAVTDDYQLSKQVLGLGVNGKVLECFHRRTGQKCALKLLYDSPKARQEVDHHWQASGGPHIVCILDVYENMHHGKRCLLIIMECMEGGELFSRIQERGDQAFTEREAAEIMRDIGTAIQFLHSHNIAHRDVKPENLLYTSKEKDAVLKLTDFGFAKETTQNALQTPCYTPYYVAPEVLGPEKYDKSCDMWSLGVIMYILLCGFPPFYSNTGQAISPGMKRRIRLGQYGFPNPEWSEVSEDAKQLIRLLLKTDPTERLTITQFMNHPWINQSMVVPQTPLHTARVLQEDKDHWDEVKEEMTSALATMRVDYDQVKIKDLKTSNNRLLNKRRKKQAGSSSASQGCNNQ

`C=CC(=O)Nc1cccc(Nc2nc(Nc3ccc(OCCOC)c(F)c3)ncc2F)c1` [Compound 2]: the inhibition at 3 µM at MAPKAPK3 is -2.45%; against KHS/MAP4K5, 7.15%; on MLCK/MYLK, 4.59%; on ALK, 16.9%; on SGK3/SGKL it was -2.42%; on BRSK1 it was 11.8%. Also, the inhibition at 3 µM stood at 14.5% at PHKg1 and 22.8% against RSK4. The remaining activity at 3 µM on MAPKAPK3 (setting [1]) is 102%; on MAPKAPK3 (setting [2]), 103%; on KHS/MAP4K5 (setting [1]), 94.9%; on KHS/MAP4K5 (setting [2]) it was 90.8%; at MLCK/MYLK (setting [1]) it was 95.6%; on MLCK/MYLK (setting [2]), 95.2%. For the same compound, the remaining activity at 3 µM at ALK (setting [1]) amounted to 82.5%; at ALK (setting [2]) it was 83.6%; on SGK3/SGKL (setting [1]), 99.5%; on SGK3/SGKL (setting [2]), 105%; at BRSK1 (setting [1]), 87.1%; at BRSK1 (setting [2]), 89.4%. Moreover, the remaining activity at 3 µM at PHKg1 (setting [1]) is 85.8%; at PHKg1 (setting [2]) it was 85.2%; on RSK4 (setting [1]), 77.2%; on RSK4 (setting [2]) it was 77.2%.
